Results as given in PubChem BioAssay (NCI).
≈ marks a conversion by molar mass, not a printed value.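 Exposure lasted 48 hours, with cells grown in 96-well plates and compounds tested at five concentrations. GI50: concentration for 50% inhibition of growth. TGI: concentration producing complete growth inhibition.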

Key:
Assay in all cases: NCI-60 cell line screen, 48 h
M14 melanoma = system: M14 melanoma
DU-145 prostate = system: DU-145 prostate
UACC-62 melanoma = system: UACC-62 melanoma
SR leukemia = system: SR leukemia
NCI-H460 lung = system: NCI-H460 lung
786-0 renal = system: 786-0 renal
HL-60(TB) leukemia = system: HL-60(TB) leukemia
MOLT-4 leukemia = system: MOLT-4 leukemia
LOX IMVI melanoma = system: LOX IMVI melanoma
HOP-92 NSCLC = system: HOP-92 NSCLC
K-562 leukemia = system: K-562 leukemia
A549 NSCLC = system: A549 NSCLC
RPMI-8226 leukemia = system: RPMI-8226 leukemia
SK-OV-3 ovarian = system: SK-OV-3 ovarian
SK-MEL-28 melanoma = system: SK-MEL-28 melanoma
NCI-H522 lung = system: NCI-H522 lung
SF-295 CNS = system: SF-295 CNS
HCC-2998 colon = system: HCC-2998 colon
CCRF-CEM leukemia = system: CCRF-CEM leukemia

SMILES: COCCCC(NC(=O)C(CC(C)C)NC(=O)OCc1ccc(OC)cc1)C(=O)OC (stereo not given)
- GI50 (M14 melanoma): 50.5 µg/mL (≈ 115 µM)
- TGI (M14 melanoma): 85.3 µg/mL (≈ 194 µM)
- GI50 (DU-145 prostate): 77.6 µg/mL (≈ 177 µM)
- GI50 (UACC-62 melanoma): 71.3 µg/mL (≈ 163 µM)
- GI50 (SR leukemia): 18.8 µg/mL (≈ 42.8 µM)
- TGI (SR leukemia): 42.5 µg/mL (≈ 97 µM)
- GI50 (NCI-H460 lung): 23 µg/mL (≈ 52.5 µM)
- TGI (NCI-H460 lung): 46.2 µg/mL (≈ 105 µM)
- GI50 (786-0 renal): 80.6 µg/mL (≈ 184 µM)
- GI50 (HL-60(TB) leukemia): 26.9 µg/mL (≈ 61.3 µM)
- TGI (HL-60(TB) leukemia): 57.5 µg/mL (≈ 131 µM)
- GI50 (MOLT-4 leukemia): 39.4 µg/mL (≈ 89.9 µM)
- TGI (MOLT-4 leukemia): 60.1 µg/mL (≈ 137 µM)
- GI50 (LOX IMVI melanoma): 96.4 µg/mL (≈ 220 µM)
- GI50 (HOP-92 NSCLC): 40.8 µg/mL (≈ 93 µM)
- TGI (HOP-92 NSCLC): 65.4 µg/mL (≈ 149 µM)
- GI50 (K-562 leukemia): 36 µg/mL (≈ 82.1 µM)
- TGI (K-562 leukemia): 81.5 µg/mL (≈ 186 µM)
- GI50 (A549 NSCLC): 61.1 µg/mL (≈ 139 µM)
- GI50 (RPMI-8226 leukemia): 27 µg/mL (≈ 61.6 µM)
- TGI (RPMI-8226 leukemia): 70 µg/mL (≈ 160 µM)
- GI50 (SK-OV-3 ovarian): 71.6 µg/mL (≈ 163 µM)
- GI50 (SK-MEL-28 melanoma): 47.1 µg/mL (≈ 107 µM)
- TGI (SK-MEL-28 melanoma): 76.6 µg/mL (≈ 175 µM)
- GI50 (NCI-H522 lung): 59.8 µg/mL (≈ 136 µM)
- GI50 (SF-295 CNS): 83.3 µg/mL (≈ 190 µM)
- GI50 (HCC-2998 colon): 32.5 µg/mL (≈ 74.2 µM)
- TGI (HCC-2998 colon): 75.1 µg/mL (≈ 171 µM)
- GI50 (CCRF-CEM leukemia): 42.1 µg/mL (≈ 95.9 µM)
- TGI (CCRF-CEM leukemia): 87.1 µg/mL (≈ 199 µM)
